# Read-outs that look alike come from different tables or passages of the source.
# Columns and labels:
# [1] = system: E. cloacae 144200 expressing Class C P99 AmpC; assay: broth microdilution MIC, E. cloacae P99; format: cell-based; details: Fixed CAZ (ceftazidime) 4 μg/mL
# In short: (§1)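 Potentiation MICs were run by CLSI broth microdilution in cation-adjusted Mueller Hinton broth, with test compound serially diluted 2-fold from 32 to 0.25 μg/mL against a fixed 4 μg/mL beta-lactam overlay. Plates were incubated 16-20 hours at 37° C and the MIC was read visually.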
# [2] = system: P. aeruginosa Ps296 expressing VIM-2; assay: broth microdilution MIC, P. aeruginosa VIM-2; format: cell-based
# Source text: To determine the ability of test compounds to potentiate the inhibition of the growth of bacterial strains that produce beta-lactamase enzymes, classic cell based broth microdilution MIC assays were employed. Six bacteria strains producing beta-lactamase enzymes were used: E. coli expressing the Class A Extended Spectrum Beta-Lactamase (ESBL) CTX-M-15, E. cloacae expressing the Class C P99, K. pneumoniae expressing the Class A carbapenemase KPC-3, P. aeruginosa expressing the Class B carbapenemase VIM-2, K pneumoniae expressing the class A carbapenemase KPC-2 and the class B carbapenemase VIM-4, and S. aureus producing the Class A penicillinase PC-1. The assay was conducted in Cation Adjusted Mueller Hinton Broth (CAMHB, BD #212322, BD Diagnostic Systems, Sparks, Md.). Bacteria strains were grown for 3-5 hours in CAMBH broth. Test compounds were added to a microtiter plate in 2-fold serial dilutions in CAMHB in a final concentration range of 32 μg/mL to 0.25 μg/ml. An overlay of CAMHB containing a Beta-lactam was added to the compounds at a final static concentration of 4 μg/ml. […] In addition to the titration of test compounds the MICs of a panel of control beta-lactams is also tested to ensure the strains are behaving consistently from test to test. Once the test compound and antibiotics are added the plates can be inoculated according to CLSI broth microdilution method. After inoculation the plates are incubated for 16-20 hours at 37° C., then the Minimal Inhibitory Concentration (MIC) of the test compound is determined visually.
# Using the methodology described above, examples of the current invention were evaluated for their ability to inhibit the growth of β-lactamase-producing bacteria in the presence of a β-lactam antibiotic.
# Representative results are shown in Table 4 where A represents an MIC of the fixed β-lactam antibiotic in the presence of >32 µg/mL of a β-lactamase inhibitor of exemplary compounds, B represents the MIC in the presence of between 8 and 32 µg/mL of a β-lactamase inhibitor of exemplary compounds, and C represents the MIC in the presence of ≤4 µg/mL of a β-lactamase inhibitor of exemplary compounds. NT=Not Tested.
# p99 AmpC β-lactamase = biological target: T1, p99 AmpC β-lactamase (Enterobacter cloacae, UniProt P05364); assay: β-lactamase enzyme inhibition, p99 AmpC; format: biochemical
# T1 construct: made in house; host or cells: E. coli BL21(DE3)
# In short: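 Native untagged E. cloacae p99 AmpC was expressed in E. coli BL21(DE3) and purified by cation exchange and gel filtration. Enzyme was preincubated with inhibitor at 37°C for 15 min.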
# SHV-5 β-lactamase = biological target: T2, SHV-5 β-lactamase (Klebsiella pneumoniae, UniProt P0A3M1); assay: β-lactamase enzyme inhibition, SHV-5; format: biochemical
# T2 construct: made in house; host or cells: E. coli BL21(DE3)
# In short: (§2)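 Native untagged enzymes expressed in E. coli BL21(DE3) and purified by cation exchange and gel filtration were preincubated with inhibitor for 15 min at 37° C. Hydrolysis was followed for 10 min: nitrocefin (100 μM final, 486 nm) for OXA-1 and p99 AmpC, imipenem (300 nm) for KPC-2, cefotaxime (260 nm) for SHV-5; IC50 from initial rates.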
# [3] = system: K. pneumoniae A-1797 expressing KPC-2 and VIM-4; assay: broth microdilution MIC, K. pneumoniae KPC-2 and VIM-4; format: cell-based; details: for MIC of exemplary compounds in presence of fixed β-lactams, K.P. A-1797 KPC-2 VIM-4: Fixed Mero (meropenem) 4 μg/mL
# In short: as §1
# [4] = biological target: T3, VIM-2 metallo β-lactamase (Pseudomonas aeruginosa, UniProt Q9K2N0); assay: β-lactamase enzyme inhibition, VIM-2; format: biochemical; details: Nitrocefin 100 μM, 486 nm; 15 min at 37° C. preincubation; read-out: IC50 VIM-2 (Class B)
# T3 construct: made in house; host or cells: E. coli BL21(DE3)
# In short: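 VIM-2 purified by Q sepharose anion exchange (50 mM Hepes pH 7.5, 0-600 mM NaCl gradient, two runs, >90% purity). Enzyme preincubated with inhibitor 15 min at 37° C; nitrocefin 100 μM final, absorbance at 486 nm followed 10 min. IC50 from initial hydrolysis rates versus inhibitor-free controls.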
# [5] = system: E. coli ESBL4 expressing CTX-M-15; assay: broth microdilution MIC, E. coli CTX-M-15; format: cell-based; details: Fixed CAZ (ceftazidime) 4 μg/mL
# In short: as §1
# KPC-2 β-lactamase = biological target: T4, KPC-2 β-lactamase (Klebsiella pneumoniae, UniProt Q9F663); assay: β-lactamase enzyme inhibition, KPC-2; format: biochemical
# T4 construct: made in house; host or cells: E. coli BL21(DE3)
# In short: as §2
# OXA-1 β-lactamase = biological target: T5, OXA-1 β-lactamase (Escherichia coli, UniProt P13661); assay: β-lactamase enzyme inhibition, OXA-1; format: biochemical; details: Nitrocefin 100 μM, 486 nm; 15 min at 37° C. preincubation; read-out: IC50 OXA-1 (Class D)
# T5 construct: made in house; host or cells: E. coli BL21(DE3)
# Protocol: For SHV-5, Kpc-2, p99AmpC and OXA-1 β-lactamases, E. coli BL21(DE3) bacterial cells carrying expression plasmids (expressed as native untagged proteins) for the individual β-lactamases were grown in 1 L of Superbroth (Teknova Inc. Hollister, Calif.) supplemented with 100 μg/ml kanamycin selection and 1×5052 (0.5% glycerol, 0.05% glucose and 0.2% α-lactose) at 35° C. for 18-20 hours. Cells were harvested by centrifugation (4,000×g, 4° C., 20 min), resuspended in 50 ml of 10 mM HEPES pH 7.5 ( 1/20 of the initial volume). The cells were lysed by sonication (5 pulses of 45 seconds) at 45 W on ice. The lysates were clarified by centrifugation at 10,000×g for 40 minutes at 4° C. Samples were diluted 5-fold in 50 mM sodium acetate pH 5.0, stored overnight at 4° C., after which they were centrifuged at 10,000×g for 30 minutes to clarify, and filtered through 0.45 μm filters. The samples were loaded onto a 5 ml Capto S sepharose cation exchange column (GE Healthcare) pre-equilibrated with 50 mM sodium acetate pH 5.0. The column was washed with 5 column volumes of 50 mM sodium acetate pH 5.0 to wash out unbound protein and a linear gradient of NaCl (0 to 500 mM) was used to elute the protein (over 16 CV) from the column. Fractions were assayed for […] activity using Centa (Calbiochem, Gibbstown, N.J.) or Nitrocefin (EMD Millipore chemicals, Darmstadt, Germany) as a reporter β-lactamase substrate for activity in the isolated fractions. Active fractions were pooled, concentrated and further purified by gel filtration chromatography on a Superdex 75 prep grade gel filtration column (GE Healthcare, Piscataway, N.J.) pre-equilibrated in 50 mM Hepes pH 7.5, 150 mM NaCl. Active fractions were pooled, concentrated, and quantitated by BCA protein determination (Thermo Scientific, Rockford, Ill.), dialyzed into PBS and frozen at −80° C. in 20% glycerol until use.
# An equal volume of diluted enzyme stock was added, and the plates were incubated at 37° C. for 15 min. Nitrocefin was used as substrate for p99 AmpC, VIM-2 and OXA-1 and dispensed into each well at a final concentration of 100 μM. Absorbance at 486 nm was immediately monitored for 10 min using a Biotek Powerwave XS2 microplate spectrophotometer using the GEN5 software package (Biotek Instruments, Winooski Vt.). In an analogous fashion, imipenem was used as substrate for KPC-2 and Cefotaxime was used for SHV-5, while changes in absorbance upon hydrolysis of the β-lactam ring were monitored at 300 nm and 260 nm respectively in UV-transparent 96-well microtiter assay plates. Maximum rates of hydrolysis were compared to those in control wells (without inhibitors), and percentages of enzyme inhibition were calculated for each concentration of inhibitor. The concentration of inhibitor needed to reduce the initial rate of hydrolysis of substrate by 50% (IC50) was calculated as the residual activity of β-lactamase at 486 nm using GraFit version 7 kinetics software package (Erithacus Software, Surrey, UK).
# Using the methodology described above, examples of the current invention were evaluated for their ability to inhibit β-lactamase enzymes from all four Ambler classifications (A through D). […] NT=Not tested.
# [6] = system: K. pneumoniae 156319 expressing KPC-3; assay: broth microdilution MIC, K. pneumoniae KPC-3; format: cell-based; details: for MIC of exemplary compounds in presence of fixed β-lactams, K.P. 156319 KPC-3: Fixed Mero (meropenem) 4 μg/mL
# In short: as §1
# [7] = imipenem substrate, 300 nm, 15 min at 37° C. preincubation, read-out: IC50 KPC-2 (Class A)
# [8] = Klebsiella pneumoniae, read-out: MIC alone
# T4 sequence (Q9F663 25-293, looked up): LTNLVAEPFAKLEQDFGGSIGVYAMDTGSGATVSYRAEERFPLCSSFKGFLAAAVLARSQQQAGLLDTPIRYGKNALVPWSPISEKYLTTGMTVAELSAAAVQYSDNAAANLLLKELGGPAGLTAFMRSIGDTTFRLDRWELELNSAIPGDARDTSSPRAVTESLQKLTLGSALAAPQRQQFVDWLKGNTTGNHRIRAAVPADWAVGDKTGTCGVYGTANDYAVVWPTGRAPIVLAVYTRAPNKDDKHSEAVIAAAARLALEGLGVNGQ
# T2 sequence (P0A3M1 22-286): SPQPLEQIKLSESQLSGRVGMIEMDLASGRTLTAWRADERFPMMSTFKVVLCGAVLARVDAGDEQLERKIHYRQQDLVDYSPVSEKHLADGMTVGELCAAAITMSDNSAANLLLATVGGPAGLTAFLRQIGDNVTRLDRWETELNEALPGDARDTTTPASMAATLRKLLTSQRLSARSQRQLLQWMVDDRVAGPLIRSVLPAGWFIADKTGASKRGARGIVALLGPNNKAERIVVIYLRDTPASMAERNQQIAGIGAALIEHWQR
# T1 sequence (P05364 21-381): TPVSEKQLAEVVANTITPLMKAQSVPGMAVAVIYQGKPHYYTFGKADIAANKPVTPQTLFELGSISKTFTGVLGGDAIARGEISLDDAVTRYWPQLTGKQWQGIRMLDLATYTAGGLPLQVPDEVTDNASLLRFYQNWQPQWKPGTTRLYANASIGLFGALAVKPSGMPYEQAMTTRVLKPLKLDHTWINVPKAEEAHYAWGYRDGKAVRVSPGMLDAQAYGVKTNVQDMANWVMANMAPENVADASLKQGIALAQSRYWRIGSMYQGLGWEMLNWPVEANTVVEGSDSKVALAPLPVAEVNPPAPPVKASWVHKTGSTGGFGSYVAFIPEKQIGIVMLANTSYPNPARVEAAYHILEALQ
# T5 sequence (P13661 26-276): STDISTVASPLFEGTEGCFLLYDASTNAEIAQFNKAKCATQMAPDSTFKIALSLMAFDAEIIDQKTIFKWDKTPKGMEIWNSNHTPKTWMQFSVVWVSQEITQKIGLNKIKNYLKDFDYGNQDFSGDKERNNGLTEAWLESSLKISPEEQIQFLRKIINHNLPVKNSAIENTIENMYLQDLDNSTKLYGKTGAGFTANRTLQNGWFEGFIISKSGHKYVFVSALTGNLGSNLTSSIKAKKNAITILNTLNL
smiles,measurement,setting,value
"O=C(CCC(F)(F)F)N[C@H]1Cc2cccc(C(=O)O)c2OB1O [Example 7, (R)-2-Hydroxy-3-(4,4,4-trifluoro-butyrylamino)-3,4-dihydro-2H-benzo[e][1,2]oxaborinine-8-carboxylic acid]","MIC of exemplary compounds in presence of fixed β-lactams, E. cl. 144200 p99 AmpC",[1],C (C represents the MIC in the presence of ≤4 g/mL of a β-lactamase inhibitor)
same,"MIC of exemplary compounds in presence of fixed β-lactams, P. aerug. Ps296 VIM-2",[2]; Fixed Mero (meropenem) 4 μg/mL,B (B represents the MIC in the presence of between 8 and 32 g/mL of a β-lactamase inhibitor)
same,IC50,p99 AmpC β-lactamase,< 100 nM
same,IC50,SHV-5 β-lactamase,< 100 nM
same,"MIC of exemplary compounds in presence of fixed β-lactams, K.P. A-1797 KPC-2 VIM-4",[3],A (A represents an MIC of the fixed β-lactam antibiotic in the presence of >32 g/mL of a β-lactamase inhibitor)
same,IC50,[4],1000 to 10000 nM
same,"MIC of exemplary compounds in presence of fixed β-lactams, E. coli ESBL4 CTX-M-15",[5],C (C represents the MIC in the presence of ≤4 g/mL of a β-lactamase inhibitor)
same,IC50,KPC-2 β-lactamase,< 100 nM
same,IC50,OXA-1 β-lactamase,< 100 nM
same,"MIC of exemplary compounds in presence of fixed β-lactams, K.P. 156319 KPC-3",[6],C (C represents the MIC in the presence of ≤4 g/mL of a β-lactamase inhibitor)
"CC(=O)CCC(=O)N[C@H]1Cc2cc(F)c(F)c(C(=O)O)c2OB1O [Example 50, (R)-6,7-Difluoro-2-hydroxy-3-(4-oxo-pentanoylamino)-3,4-dihydro-2H-benzo[e][1,2]oxaborinine-8-carboxylic acid]","MIC of exemplary compounds in presence of fixed β-lactams, E. cl. 144200 p99 AmpC",[1],C (C represents the MIC in the presence of ≤4 g/mL of a β-lactamase inhibitor)
same,IC50,p99 AmpC β-lactamase,100 to 1000 nM
same,IC50,SHV-5 β-lactamase,< 100 nM
same,"MIC of exemplary compounds in presence of fixed β-lactams, K.P. A-1797 KPC-2 VIM-4",[3],B (B represents the MIC in the presence of between 8 and 32 g/mL of a β-lactamase inhibitor)
same,IC50,[4],100 to 1000 nM
same,"MIC of exemplary compounds in presence of fixed β-lactams, E. coli ESBL4 CTX-M-15",[5],C (C represents the MIC in the presence of ≤4 g/mL of a β-lactamase inhibitor)
same,IC50,KPC-2 β-lactamase; [7],< 100 nM
same,IC50,OXA-1 β-lactamase,< 100 nM
same,"MIC of exemplary compounds in presence of fixed β-lactams, K.P. 156319 KPC-3",[6],B (B represents the MIC in the presence of between 8 and 32 g/mL of a β-lactamase inhibitor)
"CS(=O)(=O)NCCC(=O)N[C@H]1Cc2cc(F)c(F)c(C(=O)O)c2OB1O [Example 51, (R)-6,7-Difluoro-2-hydroxy-3-(3-methanesulfonylamino-propionylamino)-3,4-dihydro-2H-benzo[e][1,2]oxaborinine-8-carboxylic acid]","MIC of exemplary compounds in presence of fixed β-lactams, E. cl. 144200 p99 AmpC",[1],C (C represents the MIC in the presence of ≤4 g/mL of a β-lactamase inhibitor)
same,IC50,p99 AmpC β-lactamase,< 100 nM
same,IC50,SHV-5 β-lactamase,< 100 nM
same,"MIC of exemplary compounds in presence of fixed β-lactams, K.P. A-1797 KPC-2 VIM-4",[3],B (B represents the MIC in the presence of between 8 and 32 g/mL of a β-lactamase inhibitor)
same,IC50,[4],1000 to 10000 nM
same,"MIC of exemplary compounds in presence of fixed β-lactams, E. coli ESBL4 CTX-M-15",[5],C (C represents the MIC in the presence of ≤4 g/mL of a β-lactamase inhibitor)
same,IC50,KPC-2 β-lactamase; [7],< 100 nM
same,IC50,OXA-1 β-lactamase,< 100 nM
same,"MIC of exemplary compounds in presence of fixed β-lactams, K.P. 156319 KPC-3",[6],C (C represents the MIC in the presence of ≤4 g/mL of a β-lactamase inhibitor)
"O=C(CCNS(=O)(=O)C(F)(F)F)N[C@H]1Cc2cccc(C(=O)O)c2OB1O [Example 52, (R)-2-Hydroxy-3-(3-trifluoromethanesulfonylamino-propionylamino)-3,4-dihydro-2H-benzo[e][1,2]oxaborinine-8-carboxylic acid]","MIC of exemplary compounds in presence of fixed β-lactams, E. cl. 144200 p99 AmpC",[1],C (C represents the MIC in the presence of ≤4 g/mL of a β-lactamase inhibitor)
same,IC50,p99 AmpC β-lactamase,< 100 nM
same,IC50,SHV-5 β-lactamase,< 100 nM
same,"MIC of exemplary compounds in presence of fixed β-lactams, K.P. A-1797 KPC-2 VIM-4",[3],B (B represents the MIC in the presence of between 8 and 32 g/mL of a β-lactamase inhibitor)
same,IC50,[4],1000 to 10000 nM
same,"MIC of exemplary compounds in presence of fixed β-lactams, E. coli ESBL4 CTX-M-15",[5],C (C represents the MIC in the presence of ≤4 g/mL of a β-lactamase inhibitor)
same,IC50,KPC-2 β-lactamase; [7],< 100 nM
same,IC50,OXA-1 β-lactamase,< 100 nM
same,"MIC of exemplary compounds in presence of fixed β-lactams, K.P. 156319 KPC-3",[6],B (B represents the MIC in the presence of between 8 and 32 g/mL of a β-lactamase inhibitor)
"C[C@@H](O)[C@H]1C(=O)N2C(C(=O)O)=C(S[C@@H]3CN[C@H](C(=O)N(C)C)C3)[C@H](C)[C@H]12 [Meropenem, meropenem, reference compound]",MIC alone,"[2]; partner antibiotic alone, P. aeruginosa expressing VIM-2",16 µg/mL
same,MIC,[3]; [8],64 µg/mL
same,MIC,[6]; [8],> 128 µg/mL

# — patent US11008346B2, “Beta-lactamase inhibitors” (priority 2014, dated 2021)
